Consider ten molecules from ChEMBL document CHEMBL4033752, “Discovery of Potent and Selective Tricyclic Inhibitors of Bruton's Tyrosine Kinase with Improved Druglike Properties” (ACS Med Chem Lett, 2017).

Calls of active or inactive are those of the source. The calls are words filed in the database; no cut-off is given here.

Data set [1] can be described thus: Total clearance in rat at 1 mg/kg, iv. The class given is ADME, organism-based. Conditions: in vivo.
A short description of data set [2]: Oral bioavailability in rat at 5 mg/kg. It is filed as ADME, organism-based. Conditions: in vivo.
Data set [3] in a line: Apparent permeability from apical side to basolateral side in MDCK cells at 10 uM after 3 hrs by LC-MS/MS analysis. Conditions: dog. The class given is ADME, cell-based, Canis lupus familiaris.
The target of data set [4] is T1, Tyrosine-protein kinase BTK (Homo sapiens, UniProt Q06187).
T1 sequence (Q06187 whole entry): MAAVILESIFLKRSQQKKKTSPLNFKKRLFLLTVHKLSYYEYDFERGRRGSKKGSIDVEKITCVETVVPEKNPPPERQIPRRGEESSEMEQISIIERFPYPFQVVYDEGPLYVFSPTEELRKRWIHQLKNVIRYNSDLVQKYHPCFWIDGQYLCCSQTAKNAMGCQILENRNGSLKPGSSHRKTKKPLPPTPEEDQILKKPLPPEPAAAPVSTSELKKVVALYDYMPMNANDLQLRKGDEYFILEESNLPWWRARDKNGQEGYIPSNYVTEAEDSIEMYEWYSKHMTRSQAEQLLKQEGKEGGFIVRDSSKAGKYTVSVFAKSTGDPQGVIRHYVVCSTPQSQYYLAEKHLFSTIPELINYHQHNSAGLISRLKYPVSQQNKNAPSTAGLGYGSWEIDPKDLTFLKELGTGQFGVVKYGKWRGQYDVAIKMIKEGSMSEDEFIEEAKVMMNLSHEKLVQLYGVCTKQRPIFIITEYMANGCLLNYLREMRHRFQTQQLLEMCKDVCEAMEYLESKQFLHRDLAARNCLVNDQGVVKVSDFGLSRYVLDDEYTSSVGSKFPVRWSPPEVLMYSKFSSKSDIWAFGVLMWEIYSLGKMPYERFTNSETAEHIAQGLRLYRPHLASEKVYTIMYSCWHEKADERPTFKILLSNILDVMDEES
Description: Inhibition of recombinant human full length His-tagged BTK expressed in baculovirus expression system by Z-LYTE assay
Data set [5] deals with Tyrosine-protein kinase BTK (Mus musculus, UniProt P35991).
Chain of Tyrosine-protein kinase BTK (Mus musculus, UniProt P35991) (P35991 whole entry): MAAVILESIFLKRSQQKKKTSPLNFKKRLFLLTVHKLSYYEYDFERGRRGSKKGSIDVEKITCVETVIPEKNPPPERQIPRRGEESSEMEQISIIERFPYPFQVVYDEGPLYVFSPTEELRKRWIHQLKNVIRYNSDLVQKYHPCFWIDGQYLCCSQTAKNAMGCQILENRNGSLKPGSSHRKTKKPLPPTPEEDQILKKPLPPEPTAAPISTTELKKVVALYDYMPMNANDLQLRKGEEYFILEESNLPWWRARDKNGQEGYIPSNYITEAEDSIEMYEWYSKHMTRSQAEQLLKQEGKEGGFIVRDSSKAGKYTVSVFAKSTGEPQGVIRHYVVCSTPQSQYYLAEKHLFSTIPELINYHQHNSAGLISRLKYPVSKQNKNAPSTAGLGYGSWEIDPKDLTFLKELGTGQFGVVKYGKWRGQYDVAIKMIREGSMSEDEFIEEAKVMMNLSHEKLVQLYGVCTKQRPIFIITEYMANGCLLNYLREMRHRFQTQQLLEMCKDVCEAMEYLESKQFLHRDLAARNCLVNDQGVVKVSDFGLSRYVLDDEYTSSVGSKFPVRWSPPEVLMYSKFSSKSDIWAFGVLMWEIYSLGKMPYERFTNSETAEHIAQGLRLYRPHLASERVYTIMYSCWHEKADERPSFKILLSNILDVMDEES
Data set [6] deals with T1, Tyrosine-protein kinase BTK. The source holds these as a separate data set.
Description: Inhibition of BTK in goat anti-human IgM F(ab')2-stimulated human whole blood assessed as suppression of BCR-induced CD69 expression on B cells preincubated for 1 hr followed by blood stimulation measured after 18 hrs by FACS analysis
The conditions of data set [7]: buffer, pH 7.4.
Description: Kinetic solubility of the compound at pH 7.4
The test system of data set [8] is Rattus norvegicus. Briefly: Antiinflammatory activity in Lewis rat CIA model assessed as reduction in ankle thickness at 0.05 mg/kg measured between day 10 and day 17. The class given is functional, organism-based.
Data set [9] in a line: Total clearance in mouse. Conditions: in vivo. The class given is ADME, organism-based.
The nature of data set [10]: Total clearance in dog. It is filed as ADME, Canis lupus familiaris. Conditions: in vivo.
Data set [11] in a line: Total clearance in cynomolgus monkey. The class given is ADME, Macaca fascicularis. Conditions: in vivo.
Data set [12] deals with Mus musculus. Briefly: Oral bioavailability in mouse at 5 mg/kg. The class given is ADME, organism-based. The conditions noted are these: in vivo.
In data set [13] the test system is Mus musculus. Briefly: Oral bioavailability in mouse at 100 mg/kg. It is filed as ADME, organism-based. Conditions: in vivo.
Data set [14] concerns Rattus norvegicus. The experiment in a line: Oral bioavailability in rat at 100 mg/kg. Conditions: in vivo. It is filed as ADME, organism-based.
The test system of a further data set is Canis familiaris. Briefly: Oral bioavailability in dog at 5 mg/kg. It is filed as ADME, organism-based, Canis lupus familiaris. The conditions noted are these: in vivo.
The test system of data set [15] is Rattus norvegicus. Briefly: Antiinflammatory activity in Lewis rat CIA model assessed as reduction in ankle thickness administered via oral gavage as bid measured between day 10 and day 17. The class given is functional.

As to `Cn1cc(-c2cccc(N3CCn4c(cc5c4CCCC5)C3=O)c2CO)cc(Nc2ccc(N3CCN(C4COC4)CC3)cn2)c1=O`, in data set [1], the clearance was determined as 14 mL/min/kg. In [2], this molecule displayed a bioavailability of 46%. The Papp A→B at 3 h, 10 µM in [3] was in the range of 1 to 10 ×10⁻⁶ cm/s. For the same molecule, the IC50 in data set [4] turned out to be 8 nM; in data set [5], 137 nM; in data set [6], 69 nM. The molecule further had a Kinetic_solubility in [7] of 99 µM.

In the case of `C[C@@H]1C[C@H]2[C@@H]3CCC4=CC(=O)C=C[C@]4(C)[C@@]3(F)[C@@H](O)C[C@]2(C)[C@@]1(O)C(=O)CO`, the result with Rattus norvegicus [8] was Active.

In the case of `Cn1cc(-c2cccc(N3CCc4c(sc5c4CC(C)(C)C5)C3=O)c2CO)cc(Nc2ccncn2)c1=O`, the clearance in data set [9] is 22 mL/min/kg; in [10], 7 mL/min/kg; in [11], 17 mL/min/kg. Moreover, the F with Mus musculus [12] is 77%; in the data set on Mus musculus [13] it was 45%; with Rattus norvegicus [14], 23%; in the data set with Canis familiaris, 27%. Moreover, the Activity result with Rattus norvegicus [15] is “Dose-dependent effect”.

For the molecule `CN1CCN(c2ccc(Nc3cc(-c4cccc(N5CCn6c(cc7c6CCCC7)C5=O)c4CO)cn(C)c3=O)nc2)CC1`, the clearance in data set [1] was 40 mL/min/kg. In data set [2], this molecule returned a bioavailability of 20%. Also, the Papp A→B at 3 h, 10 µM in [3] was in the range of 1 to 10 ×10⁻⁶ cm/s. Also, the results for the IC50 in [4], in data set [5] and in data set [6] were 4 nM, 107 nM and 45 nM, respectively. The molecule also gave a Kinetic_solubility in [7] of 115 µM.

Turning to `Cc1c(NC(=O)c2cc3c(s2)CCCC3)cccc1-c1cc(Nc2ccncn2)c(=O)n(C)c1`, the clearance in data set [1] came to 2 mL/min/kg. Also, the bioavailability in [2] stood at 45%. The IC50 in data set [4] was found to be 42 nM; in data set [5] it was 740 nM.

The molecule `Cn1cc(-c2cc(F)cc(N3CCn4c(cc5c4CCCC5)C3=O)c2CO)cc(Nc2ccc(N3CCN(C4COC4)CC3)cn2)c1=O` had a clearance in data set [1] of 20 mL/min/kg. This molecule gave a bioavailability in data set [2] of 27%. The Papp A→B at 3 h, 10 µM in [3] is more than 10 ×10⁻⁶ cm/s. The molecule further had an IC50 in data set [5] of 10 nM. This molecule also showed a Kinetic_solubility in data set [7] of 73 µM.

Regarding `Cn1cc(-c2cccc(N3CCc4cc(C(C)(C)C)ccc4C3=O)c2CO)cc(Nc2ccncn2)c1=O`, in data set [5], the IC50 came to 51 nM. This molecule displayed a Kinetic_solubility in [7] of 2 µM.

As for `CN1CCN(c2ccc(Nc3cc(-c4cc(F)cc(N5CCn6c(cc7c6CCCC7)C5=O)c4CO)cn(C)c3=O)nc2)CC1`, the clearance in data set [1] was 37 mL/min/kg. Besides, the bioavailability in data set [2] was found to be 52%. Also, the Papp A→B at 3 h, 10 µM in data set [3] was 1 to 10 ×10⁻⁶ cm/s. It took 22 nM to reach half-maximal inhibition in data set [5] (IC50). This molecule also gave a Kinetic_solubility in [7] of 71 µM.

In turn, `Cn1cc(-c2cccc(N3CCc4c(sc5c4CCCC5)C3=O)c2CO)cc(Nc2ccncn2)c1=O` came in with a bioavailability in [2] of 90%.

In [1], `CN1CCN(c2ccc(Nc3cc(-c4cccc(N5CCc6c(sc7c6CC(C)(C)C7)C5=O)c4CO)cn(C)c3=O)nc2)CC1` returned a clearance of 29 mL/min/kg. Moreover, the bioavailability in data set [2] amounted to 37%.
